Data from US11583512B2, “Composition for relieving itch or irritation of skin, comprising thymol trimethoxycinnamate” (Amorepacific Corporation, priority 2020, dated 2023).

Biological target: T1, voltage-gated sodium channel Nav1.7 (Homo sapiens, UniProt Q15858)
T1 construct: host or cells: HEK293
Assay: Nav1.7 inhibition, membrane potential fluorescence dye assay with veratridine stimulation in Human Nav1.7-HEK293 cells
Format: cell-based
Details: 30 μM veratridine as stimulant
Protocol: Human Nav1.7-HEK293 cells are HEK293 (human embryonic kidney 293) cells stabilized by transforming the human Nav1.7 gene. One day before experiment, the Human Nav1.7-HEK293 cells were dispensed onto a 96-well plate with 8×10^4 cells/well and cultured in a 5% CO2 incubator at 37° C. for 24 hours. DMEM/F12 containing 10% fetal bovine serum (FBS) was used as a culture medium and geneticin (Gibco®, Thermo Fisher Scientific) was added to stabilize the cells.
24 hours later, after washing the 96-well plate once with a 20 mM HEPES Hanks' balanced salt solution (HBSS) buffer (hereinafter, referred to as a reaction buffer, Invitrogen®, Thermo Fisher Scientific), a membrane potential fluorescence dye (FLIPR®, Molecular Devices) was added to the human Nav1.7-HEK293 cells. […] After reaction for 10 minutes, the change in membrane potential depending on treatment with 30 μM veratridine as a stimulant was measured for each well for 55 seconds using a fluorescence plate reader (FlexStation3, Molecular Device, USA).
The inhibition rate was calculated in the same manner also for lidocaine (Sigma) which is used as a local anesthetic and itch-relieving agent.

T1 sequence (Q15858 whole entry): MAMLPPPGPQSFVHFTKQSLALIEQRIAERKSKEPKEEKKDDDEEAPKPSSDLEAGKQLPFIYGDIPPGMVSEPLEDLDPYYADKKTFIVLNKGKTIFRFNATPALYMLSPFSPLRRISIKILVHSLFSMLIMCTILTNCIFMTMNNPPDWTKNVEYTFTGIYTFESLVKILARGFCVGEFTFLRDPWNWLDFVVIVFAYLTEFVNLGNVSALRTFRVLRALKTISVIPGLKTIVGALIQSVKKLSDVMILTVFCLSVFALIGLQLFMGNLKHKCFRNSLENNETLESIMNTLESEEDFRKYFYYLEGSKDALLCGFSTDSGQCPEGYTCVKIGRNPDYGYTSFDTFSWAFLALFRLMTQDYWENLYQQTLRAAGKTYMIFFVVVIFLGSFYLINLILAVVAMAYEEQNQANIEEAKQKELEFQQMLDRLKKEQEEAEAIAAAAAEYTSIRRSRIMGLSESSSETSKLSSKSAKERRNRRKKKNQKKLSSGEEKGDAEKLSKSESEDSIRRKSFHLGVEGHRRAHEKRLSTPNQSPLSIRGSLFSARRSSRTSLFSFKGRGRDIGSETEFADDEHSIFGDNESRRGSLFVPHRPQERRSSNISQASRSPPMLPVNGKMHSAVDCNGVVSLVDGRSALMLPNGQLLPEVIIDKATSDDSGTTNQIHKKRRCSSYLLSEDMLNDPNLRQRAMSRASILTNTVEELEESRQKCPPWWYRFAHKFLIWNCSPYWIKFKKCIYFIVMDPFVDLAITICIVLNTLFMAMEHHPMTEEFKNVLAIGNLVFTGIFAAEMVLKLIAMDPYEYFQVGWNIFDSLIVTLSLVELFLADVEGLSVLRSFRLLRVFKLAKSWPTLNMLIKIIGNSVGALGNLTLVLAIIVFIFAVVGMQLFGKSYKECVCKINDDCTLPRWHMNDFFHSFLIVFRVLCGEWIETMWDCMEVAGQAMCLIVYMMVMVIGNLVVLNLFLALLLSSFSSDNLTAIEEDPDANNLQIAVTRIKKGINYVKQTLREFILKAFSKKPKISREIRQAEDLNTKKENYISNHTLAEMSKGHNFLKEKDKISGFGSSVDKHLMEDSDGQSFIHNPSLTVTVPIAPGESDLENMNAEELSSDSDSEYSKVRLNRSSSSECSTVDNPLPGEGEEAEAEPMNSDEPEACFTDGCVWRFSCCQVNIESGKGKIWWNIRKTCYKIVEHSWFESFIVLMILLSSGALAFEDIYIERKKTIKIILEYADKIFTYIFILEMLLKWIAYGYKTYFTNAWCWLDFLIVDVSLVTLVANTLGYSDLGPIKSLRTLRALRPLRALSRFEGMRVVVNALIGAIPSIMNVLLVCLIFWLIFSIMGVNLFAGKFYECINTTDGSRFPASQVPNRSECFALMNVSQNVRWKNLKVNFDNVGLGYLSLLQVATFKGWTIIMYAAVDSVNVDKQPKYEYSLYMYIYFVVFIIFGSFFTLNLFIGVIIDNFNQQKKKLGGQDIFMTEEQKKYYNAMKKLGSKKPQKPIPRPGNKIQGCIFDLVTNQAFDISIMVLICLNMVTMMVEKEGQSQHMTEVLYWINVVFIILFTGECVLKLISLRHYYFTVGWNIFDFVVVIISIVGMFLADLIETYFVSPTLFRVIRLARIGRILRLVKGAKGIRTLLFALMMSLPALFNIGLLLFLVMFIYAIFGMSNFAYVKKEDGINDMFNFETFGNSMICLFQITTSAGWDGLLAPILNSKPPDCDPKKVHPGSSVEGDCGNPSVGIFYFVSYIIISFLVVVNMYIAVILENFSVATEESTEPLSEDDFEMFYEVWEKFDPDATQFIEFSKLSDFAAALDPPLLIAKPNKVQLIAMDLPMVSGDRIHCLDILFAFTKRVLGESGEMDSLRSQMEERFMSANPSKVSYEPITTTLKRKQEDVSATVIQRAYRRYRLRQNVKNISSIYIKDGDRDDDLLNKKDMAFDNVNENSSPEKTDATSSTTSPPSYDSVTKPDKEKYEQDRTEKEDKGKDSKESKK

CCN(CC)CC(=O)Nc1c(C)cccc1C [Lidocaine, lidocaine]
IC50: 28.7 µM
